Test results: patent US20210349099A1, “CANCER BIOMARKERS AND METHODS OF USE THEREOF” (X4 Pharmaceuticals, Inc., priority 2017, published 2021)

How the values were obtained:
[1] = system: pancreatic adenocarcinoma; conditions: murine pancreatic adenocarcinoma; cited from earlier work
[2] = system: melanoma, renal cell carcinoma, and ovarian cancer; conditions: murine models; cited from earlier work
[3] = system: solid tumors, e.g. advanced or metastatic melanoma; assay: Biomarker findings in tumors; assay type: in vivo
Source text: Granzyme B is associated with cell death/apoptosis mediated by cytotoxic T lymphocytes (CTLs), natural killer (NK) cells, and cytotoxic T cells. Accordingly, in some embodiments, the biomarker is an observed increase in granzyme B expression in a tumor relative to a control. In some embodiments, the cancer is a solid tumor such as advanced or metastatic melanoma. […] Accordingly, in some embodiments, the biomarker is an observed increase in CD8^+ T cells and/or CD4^+ T cells in a tumor relative to a control. In other embodiments, the biomarker is an increase in the ratio of CD8^+ T cells to Treg cells. In some embodiments, the increase is observed by immunohistochemistry or expression levels of one or both of CD8A and CD8B. In some embodiments, an increase in CD8^+ T cells and/or CD4^+ T cells or CD8^+ T cells/Treg ratio in a tumor sample from a patient who has undergone treatment with […]-001 or X4-136 correlates with an increased likelihood that the patient will benefit from continued treatment with […]-001 alone or in combination with an immunotherapeutic agent, e.g., a checkpoint inhibitor such as a PD-1 antagonist. In some embodiments, the PD-1 antagonist is selected from nivolumab and pembrolizumab, or a biosimilar or variant of such PD-1 antagonists. In some embodiments, the checkpoint inhibitor is nivolumab. In some embodiments, the checkpoint inhibitor is a nivolumab biosimilar or variant. In some embodiments, the checkpoint inhibitor is pembrolizumab. In some embodiments, the checkpoint inhibitor is a pembrolizumab biosimilar or variant. In some embodiments, the tumor is a solid tumor such as advanced or metastatic melanoma. […] In some embodiments, the biomarker is IDO1. In some embodiments, the biomarker is CXCL10. In some embodiments, the biomarker is CXCL9. In some embodiments, the biomarker is HLA-DRA. In some embodiments, the biomarker is STAT1. In some embodiments, the biomarker is IFN-γ. In some embodiments, the biomarker is two or more of IDOL, CXCL10, CXCL9, HLA-DRA, STAT1 and IFN-γ. In some embodiments, the biomarker is three or more of IDO1, CXCL10, CXCL9, HLA-DRA, STAT1 and IFN-γ. In some embodiments, the biomarker is four or more of IDOL, CXCL10, CXCL9, HLA-DRA, STAT1 and IFN-γ. In some embodiments, the biomarker is five or more of IDOL, CXCL10, CXCL9, HLA-DRA, STAT1 and IFN-γ. In some embodiments, the biomarker is all of IDOL, CXCL10, CXCL9, HLA-DRA, STAT1 and IFN-γ. In some embodiments, the biomarker is an increase of all of IDO1, CXCL10, CXCL9, HLA-DRA, STAT1 and IFN-γ. In some embodiments, an increase in one, two, three, four, five, or all of IDOL, CXCL10, CXCL9, HLA-DRA, STAT1 and IFN-γ in a tumor sample from a patient who has undergone treatment with […]-001 correlates with an increased likelihood that the patient will benefit from continued treatment with […]-001 alone or in combination with an immunotherapeutic agent, e.g., a checkpoint inhibitor such as a PD-1 antagonist. In some embodiments, the PD-1 antagonist is selected from nivolumab and pembrolizumab, or a biosimilar or variant of such PD-1 antagonists. In some embodiments, the checkpoint inhibitor is nivolumab. In some embodiments, the checkpoint inhibitor is a nivolumab biosimilar or variant. In some embodiments, the checkpoint inhibitor is pembrolizumab. In some embodiments, the checkpoint inhibitor is a pembrolizumab biosimilar or variant. In some embodiments, the tumor is a solid tumor such as advanced or metastatic melanoma. In some embodiments, the biomarker or the use thereof is one of those described in Ayers et al., Journal of Clinical Investigation 2017, 127(8), 2930-2940 [29] (“Ayers et al. (2017)”) or WO 2016/094377, each of which is hereby incorporated by reference. […] Accordingly, in some embodiments, the biomarker is maintenance or decrease of Treg levels in a tumor relative to a control. In some embodiments, the biomarker is the level of FoxP3 expression, which serves as a means to determine the Treg level. […]

B16-OVA tumors = assay: B16-OVA syngeneic melanoma tumor growth; assay type: in vivo, C57BL/6 mice; conditions: sixteen (16) days of treatment, regimens of Table 9
Method: B16-OVA cells (˜1×10^5) were implanted in C57BL/6 mice. Animals were evaluated periodically and when tumors attained a size of approximately 3 mm×3 mm, animals were then grouped randomly and treated for sixteen (16) days.
At the end of treatment animals were sacrificed and dissected to evaluate and sample tumor masts.

[4] = system: unresectable or metastatic melanoma; conditions: Phase 3 trial, P<0.001; cited from earlier work
[5] = solid tumors, e.g. advanced or metastatic melanoma

For `c1cc(CN2CCCNCCNCCCNCC2)ccc1CN1CCCNCCNCCCNCC1` [AMD3100, reference compound], the “T-cell accumulation among the cancer cells” value [1] is listed as “induced rapid T-cell accumulation” and the anti-tumor activity [2] is listed as “significant anti-tumor activity, including decreased metastasis and increased overall survival”.
For `Cc1cccnc1[C@H]1CCC[C@@H](c2ncccc2C)N1CCCCN` [X4-136], the “CTL signature gene expression in tumor samples or the tumor microenvironment” value ([3]; in vivo) was “increase”, the “IFN-γ gene signature (panel of IFN-γ related genes)” value ([3]; in vivo) was “increase” and the “PD-L1 expression in tumor samples and the tumor microenvironment” value ([3]; in vivo) was “increase”. The “granzyme B (GZMB) expression in cancers” value [3, 5] was “increases”, the “levels of Treg cells” value [3, 5] was “without significantly increasing” and the “levels of macrophages in the tumor” value [3, 5] was “without significantly modulating”. For the same molecule, the “observed numbers of CD8+ T cells and/or CD4+ T cells in cancers” value [3, 5] was “increases” and the “levels of the VISTA panel of biomarkers” value ([3]; tumor samples and the tumor microenvironment) was “modulate”.
For `NCCCCN(Cc1nc2ccccc2[nH]1)[C@H]1CCCc2cccnc21` [X4P], the tumor volumes (B16-OVA tumors) was “substantially reduced tumor volumes”.
For “Pembrolizumab: humanized IgG4 kappa monoclonal antibody that blocks the interaction between PD-1 and its ligands”, the objective response rate [4] is given as 33%.
In the case of ipilimumab: anti-CTLA-4 antibody, the objective response rate [4] is given as 12%.
